Assay results published in patent US20030022920A1, “1-Methyl-4- (3-ethoxy-9H-thioxanthene-9-ylidene) -piperidine and its use as 5-HT2B/H1 receptor antagonist” (priority 2001, published 2003).

Experiments:
[1] = target: T1, 5-HT receptors (the putative 5-HT2B) in rat stomach fundus longitudinal muscle (Rattus norvegicus, UniProt P30994); assay: 5-HT2B receptor tissue based functional assay in rat stomach fundus longitudinal muscle; assay type: biochemical; settings: dextral shift of 5-HT agonist concentration-response curve, rat stomach fundus strips; result in words only
T1 construct: Strips of longitudinal muscle were obtained from the stomach fundus of male Sprague Dawley rats; from tissue; host or cells: rat stomach fundus longitudinal muscle strips
Procedure: 5-HT2B Receptor Tissue Based Functional Assay
The following describes an in vitro functional assay characterizing 5-HT receptors (the putative 5-HT2B) in rat stomach fundus longitudinal muscle (Baxter et al., Brit. J. Pharmacol. 1994, 112, 323-331).
Strips of longitudinal muscle were obtained from the stomach fundus of male Sprague Dawley rats. The mucosa was removed and the strips were suspended with a resting tension of 1 g in oxygenated (95% O2/5% CO2) Tyrode solution at 37° C. The composition of the Tyrode solution was as follows (mM): NaCl 136.9; KCl 2.7; NaH2PO4 0.4; MgCl2 1.0; glucose 5.6; NaHCO3 11.9; CaCl2 1.8. […]
Effects of drugs were monitored by tension transducers and recorded on polygraph recorders. Tissue response was measured as changes in isometric tension (g). The mean potency (EC50) and maximum response were evaluated by standard iterative curve fitting procedures.
Effects of antagonists were determined by measuring dextral shifts to the agonist concentration-response curve after equilibration of the antagonists for at least 1 h. Concentration ratios were measured at half maximal response levels and single concentration antagonist affinities were determined by the equation: [formula]

[2] = target: T2, human Histamine H1 receptor (Homo sapiens, UniProt P35367); assay: Cloned human H1, H2 and H3 receptor binding assay ([3H]-mepyramine, transfected COS-7 cell homogenates); settings: displacement of 1 nM [3H]-mepyramine, COS-7 homogenates; result in words only
T2 construct: expressed in transfected cells; host or cells: COS-7 (transient transfection; cell homogenates)
Procedure: Cloned Human H1, H2, and H3 Receptor Binding Assay
COS-7 cells were transiently transfected with an expression plasmid pCineohH1, pCineohH2, pCineohH3 and pCineohH4 encoding the human Histamine H1, H2, H3 or H4 receptor, respectively. Transfected cells were harvested after 48 h, homogenized in ice-cold 50 mM Na2/potassium phosphate buffer (pH 7.4) and used for radioligand binding studies. Cell homogenates (40-50 μg of protein) were incubated for 30 min at 25° C. in 50 mM Na2/potassium phosphate buffer (pH 7.4) in 400 μl with the various concentrations of either [^3H]-mepyramine, [^3H]-thiotidine, [^3H]-R-α-Methylhistamine, and [^3H]-pyramilamine for cells expressing recombinant human H1, H2, H3 and H4 receptors, respectively. The nonspecific binding was defined in the presence of 1 μM mianserin. In displacement studies, cell homogenated were incubated either with 1 nM [^3H]-mepyramine, 15 nM [^3H]-thiotidine, 0.5 nM [^3H]-R-α-Methylhistamine, or 15 nM [^3H]-pyramilamine and increasing concentrations of competing ligands. […] The bound radioactivity was seperated by filatration through Whatman GF/C filters that had been treated with 0.3% polyethyleneimine. Filters were washed twice in 3 ml of buffer and radioactivity retained on the filters was measured by liquid scinitllation counting. […]

human H1 receptor = target: T3, human H1 receptor (Homo sapiens, UniProt P35367); assay: Human histamine H1 receptor functional assay ([3H]-inositol phosphate formation in transfected HEK-293 cells); assay type: cell-based; settings: histamine-stimulated [3H]-inositol phosphate formation, result in words only
T3 construct: expressed in transfected cells; host or cells: HEK-293 (transient transfection; whole cells)
Procedure: Human Histamine H1 Receptor Functional Assay
For the measurement of the [^3H]-inositol phosphate formation transiently transfected HEK-293 cells were seeded in 24 well plates and labeled to equilibrium with myo-[2-^3H]-inositol (3 iCi/ml) for an additional 24 hours in growth medium. The medium was aspirated and cells were washed once with 500 μl HBS-buffer (130 mM NaCl, 900 μM NaH2PO4, 800 μM MgSO4, 5.4 mM KCl, 1.8 mM CaCl2, 25 mM Glucose in 20 mM HEPES pH 7.4). Two min after applying 20 mM Li^+ the cells were stimulated by addition of histamine in HBS-buffer. The incubation was stopped by aspiration off the culture medium and the addition of cold 10 mM formic acid. [^3H]inositol phosphates were isolated by anion exchange chromatography (see Seuwen et al., 1988, EMBO J., 7, 161-168). The pKB value was calculated according to the formula: pKB=log (A′/A−1)−log [B], where A′/A is the ratio of the agonist concentrations (EC50 in the presence/EC50 in the absence of antagonist) and [B] the concentration of antagonist.

human 5-HT2B receptor [3] = target: T4, human 5-HT2B receptor (Homo sapiens, UniProt P41595); assay: 5-HT2A/5-HT2B/5-HT2C receptor binding methods (counter screen for selectivity); parameters: expressed in transfected cells; host or cells: HEK293; settings: human 5-HT2B in HEK293, [3H]-5HT approx. 0.4 nM, 120 min at 4° C.; result in words only
Procedure: 5-HT2A 5-HT2B 5-HT2C Receptor Binding Methods
5-HT2A receptors were labelled with [^3H]ketanserin in human cortex, in HEK293 cells expressing a cloned human 5-HT2A receptor and in HEK293 cells expressing the rat 5-HT2A receptor. For competition binding studies the ligand concentration was approximately 0.1 nM. For saturation binding studies concentrations of radioligand ranged from 0.01 nM to 2.0 nM. Assays were conducted in 0.5 ml of assay buffer (50 mM Tris-HCl, 4 mM calcium chloride, 0.1% by weight ascorbic acid) (pH 7.4 at 4° C.). Non-specifc binding was defined with […] unlabelled ketanserin. After a 60 min incubation at 32° C., membranes were harvested onto filters treated with 0.1% by weight of polyethylenimine and the bound radioactivity was determined.
Human 5-HT2B receptors were labelled in HEK293 cells as described above. except that the radioligand was [^3H]-5HT and that the assay buffer contained pargyline in a concentration of 10 mM and 0.1% by weight of ascorbic acid. […]
Competition radioligand binding data was analyzed using a four parameter logistic equation and iterative curve-fitting techniques to obtain estimates of the IC50 and Hill slope. Kd values, determined from saturation binding studies were then used to calculate inhibition dissociation constants (Ki).

human 5-HT2B receptor [4] = target: T4, human 5-HT2B receptor; assay: Cloned human 5-HT2B receptor binding assay ([3H]-5HT, transfected HEK 293 cell membranes); parameters: expressed in transfected cells; host or cells: HEK 293 (transient transfection; membranes); settings: [3H]5-HT 4 to 5 nM, 37° C. 30 min, result in words only
Procedure: Cloned Human 5-HT2B Receptor Binding Assay
The following describes an in vitro binding assay utilizing cloned 5-HT2B receptors radiolabelled with [^3H]-5HT.
HEK 293 cells transiently transfected with an expression plasmid pXMD1-hu2B encoding the human 5-HT2B receptor (see Schmuck et al., FEBS Lett., 1994, 342, 85-90) were used as described previously (Schmuck et al., Eur. J. Pharmacol., 1996, 8, 959-967). Two days after transfection cells were harvested, pelleted at 500 g for 5 min at 4° C., gently resuspended in ice-cold buffer1 (50 mM TRIS pH 7.7, 4 mM CaCl2) and homogenized using a Polytron PT 1200 tissue homogenizer (position 6 for 30 s). Cells were pelleted at 50,000 g, 4° C. for 10 min, washed with buffer1 and pelleted again. The final pellet was resuspended in incubation buffer (50 mM TRIS pH 7.7, 4 mM CaCl2, 10 μM pargyline and 0.1% by weight ascorbic acid). The binding assay consisted of 300 μl of membrane suspension (protein concentration =0.3 to 0.5 mg/ml), 150 μl of competing drug and 50 μl of [^3H]5-HT at a final concentration of 4 to 5 nM. […] Filters were counted by liquid scintillation. Non-specific binding was determined in the presence of an excess of 5-HT ([…]). […] Results are expressed as pK1 values. […]

T4 sequence (P41595 whole entry): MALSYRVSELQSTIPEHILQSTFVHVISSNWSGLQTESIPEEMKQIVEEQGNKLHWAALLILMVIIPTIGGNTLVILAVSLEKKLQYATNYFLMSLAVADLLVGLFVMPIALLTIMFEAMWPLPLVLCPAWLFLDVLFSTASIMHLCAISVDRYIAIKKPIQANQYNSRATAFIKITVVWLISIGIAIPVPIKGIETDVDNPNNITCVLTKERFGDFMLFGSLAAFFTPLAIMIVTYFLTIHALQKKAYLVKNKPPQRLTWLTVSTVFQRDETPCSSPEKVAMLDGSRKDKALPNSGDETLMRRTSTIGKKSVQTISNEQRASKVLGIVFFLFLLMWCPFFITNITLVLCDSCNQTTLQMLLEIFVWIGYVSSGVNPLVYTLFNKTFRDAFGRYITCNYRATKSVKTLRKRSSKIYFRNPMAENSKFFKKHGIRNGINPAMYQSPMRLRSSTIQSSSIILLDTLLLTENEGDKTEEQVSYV
T2 sequence (P35367 whole entry): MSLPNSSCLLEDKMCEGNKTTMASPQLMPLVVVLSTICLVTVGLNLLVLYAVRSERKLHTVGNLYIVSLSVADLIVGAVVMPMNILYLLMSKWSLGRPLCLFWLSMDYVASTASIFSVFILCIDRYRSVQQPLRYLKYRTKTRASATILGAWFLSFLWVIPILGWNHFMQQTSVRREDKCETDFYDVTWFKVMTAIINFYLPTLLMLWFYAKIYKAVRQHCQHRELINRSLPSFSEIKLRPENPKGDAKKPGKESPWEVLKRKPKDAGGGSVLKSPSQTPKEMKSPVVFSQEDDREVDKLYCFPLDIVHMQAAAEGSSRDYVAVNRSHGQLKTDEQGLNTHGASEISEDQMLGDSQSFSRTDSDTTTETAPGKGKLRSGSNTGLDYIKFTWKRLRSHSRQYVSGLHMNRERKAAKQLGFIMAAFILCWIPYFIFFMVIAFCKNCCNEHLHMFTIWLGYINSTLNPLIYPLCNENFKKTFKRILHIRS
T3 sequence (P35367 whole entry): as above
T1 sequence (P30994 whole entry): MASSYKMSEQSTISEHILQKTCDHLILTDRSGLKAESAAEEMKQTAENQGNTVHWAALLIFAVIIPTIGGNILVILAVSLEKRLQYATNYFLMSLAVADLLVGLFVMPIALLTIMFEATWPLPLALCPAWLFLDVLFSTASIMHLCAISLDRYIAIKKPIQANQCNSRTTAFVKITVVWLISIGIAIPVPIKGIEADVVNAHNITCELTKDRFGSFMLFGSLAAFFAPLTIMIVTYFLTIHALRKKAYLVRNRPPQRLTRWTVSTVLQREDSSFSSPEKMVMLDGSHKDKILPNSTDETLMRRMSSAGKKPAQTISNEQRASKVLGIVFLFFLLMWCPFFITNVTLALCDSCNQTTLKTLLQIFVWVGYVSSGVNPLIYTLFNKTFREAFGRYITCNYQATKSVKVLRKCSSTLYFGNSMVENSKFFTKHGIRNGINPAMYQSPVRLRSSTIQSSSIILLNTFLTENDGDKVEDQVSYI

CCOc1ccc2c(c1)Sc1ccccc1C2=C1CCN(C)CC1 [1-methyl-4-(3-ethoxy-9H-thioxanthene-9-ylidene)-piperidine]
antagonism at the 5-HT2B receptor [1]: found to be an antagonist at the 5-HT2B receptor
affinity for the human H1 receptor [2]: found to have affinity for the human H1 receptor
antagonism at the human H1 receptor (human H1 receptor): found to be an antagonist at the human H1 receptor
affinity for the 5-HT2B receptor (human 5-HT2B receptor [3]): found to have affinity for the 5-HT2B receptor
affinity for the 5-HT2B receptor (human 5-HT2B receptor [4]): found to have affinity for the 5-HT2B receptor
